Patent US20150105252A1, “SUBSTITUTED PYRAZOLES AS HERBICIDES” (E I DU PONT DE NEMOURS AND COMPANY, priority 2013, published 2015)

Columns and labels:
crabgrass, naked = test: Test E preemergence; format: in vivo, Digitaria nuda; conditions: 21 days, scale 0 to 100
Excerpt: (§1) Seeds of plant species selected from bermudagrass (Cynodon dactylon), Surinam grass (Brachiaria decumbens), crabgrass, large (large crabgrass, Digitaria sanguinalis), crabgrass, naked (naked crabgrass, Digitaria nuda), foxtail, green (green foxtail, Setaria viridis), johnsongrass (Sorghum halepense), kochia (Kochia scoparia), morningglory (pitted morningglory, Ipomoea lacunosa), nutsedge, purple (purple nutsedge, Cyperus rotundus), ragweed (common ragweed, Ambrosia elation), mustard, black (black mustard, Brassica nigra), guineagrass (Panicum maximum), dallisgrass (Paspalum dilatatum), barnyardgrass (Echinochloa crus-galli), sandbur (southern sandbur, Cenchrus echinatus), sowthistle (common sowthistle, Sonchus oleraceous), ryegrass, Italian (Italian ryegrass, Lolium multiflorum), signalgrass (broadleaf signalgrass, Brachiaria platyphylla), dayflower, VA (Virginia (VA) dayflower, Commelina virginica), bluegrass (annual bluegrass, Poa annua), quackgrass (Elytrigia repens), mallow (common mallow, Malva sylvestris), buckwheat, wild (wild buckwheat, Polygonum convolvulus), leafy spurge (Euphorbia esula), common chickweed (Stellaria media), wild poinsettia (Euphorbia heterophylla), pigweed, palmer (palmer pigweed, Amaranthus palmeri), and pigweed (redroot pigweed, Amaranthus retroflexus) were planted into a blend of loam soil and sand and treated preemergence with test chemicals formulated in a non-phytotoxic solvent mixture which included a surfactant.
(§2) Treated plants and controls were maintained in a greenhouse for 21 days, after which time all species were compared to controls and visually evaluated. Plant response ratings, summarized in Table E, are based on a scale of 0 to 100 where 0 is no effect and 100 is complete control. A dash (-) response means no test result.

arrowleaf sida = test: Test F postemergence; format: in vivo, Sida rhombifolia; conditions: scale 0 to 100
Procedure, shortened: (§3)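 Greenhouse study; evaluation window 14–21 days post-treatment. Seedlings sprayed postemergence measured 2–18 cm, while preemergence treatments went on silt loam soil. Non-phytotoxic solvent mixture with surfactant served as vehicle; response assessed by eye, 0–100 scale.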

common waterhemp = test: Test F postemergence; format: in vivo, Amaranthus rudis; conditions: scale 0 to 100
Procedure, shortened: as §3

[1] = system: waterhemp_RES1 (ALS & Triazine resistant common waterhemp); test: Test F postemergence; format: in vivo, Amaranthus rudis; conditions: scale 0 to 100
Procedure, shortened: as §3

bermudagrass = test: Test E preemergence; format: in vivo, Cynodon dactylon; conditions: 21 days, scale 0 to 100
Excerpt: as §1, §2

horseweed = test: Test F postemergence; format: in vivo, Conyza canadensis; conditions: scale 0 to 100
Excerpt: Seeds of plant species selected from corn (Zea mays), soybean (Glycine max), velvetleaf (Abutilon theophrasti), lambsquarters (Chenopodium album), wild poinsettia (Euphorbia heterophylla), pigweed, palmer (palmer pigweed, Amaranthus palmeri), common waterhemp (Amaranthus rudis), surinam grass (Brachiaria decumbens), large crabgrass (Digitaria sanguinalis), crabgrass, Brazil (Brazilian crabgrass, Digitaria horizontalis), fall panicum (Panicum dichotomiflorum), giant foxtail (Setaria faberii), green foxtail (Setaria viridis), goosegrass (Eleusine indica), johnsongrass (Sorghum halepense), common ragweed (Ambrosia elation), barnyardgrass (Echinochloa crus-galli), southern sandbur (Cenchrus echinatus), arrowleaf sida (Sida rhombifolia), Italian ryegrass (Lolium multiflorum), dayflower, VA (Virginia (VA) dayflower, Commelina virginica), field bindweed (Convolvulus arvensis), cocklebur (common cocklebur, Xanthium strumarium), morningglory (Ipomoea coccinea), nightshade (eastern black nightshade, Solanum ptycanthum), kochia (Kochia scoparia), yellow nutsedge (Cyperus esculentus), and hairy beggarticks (Bidens pilosa), were planted into a silt loam soil and treated preemergence with test chemicals formulated in a non-phytotoxic solvent mixture which included a surfactant.
At the same time, plants from these crop and weed species and also horseweed (Canada horseweed, Conyza canadensis), smartweed (ladysthumb smartweed, Polygonum persicaria), waterhemp_RES1, (ALS & Triazine resistant common waterhemp, Amaranthus rudis), and waterhemp_RES2, (ALS & HPPD resistant common waterhemp, Amaranthus rudis) were treated with postemergence applications of test chemicals formulated in the same manner. Plants ranged in height from 2 to 18 cm for postemergence treatments (1- to 4-leaf stage). Treated plants and controls were maintained in a greenhouse for 14 to 21 days, after which time all species were compared to controls and visually evaluated. Plant response ratings, summarized in Table F, are based on a scale of 0 to 100 where 0 is no effect and 100 is complete control. A dash (-) response means no test result.

wild poinsettia = test: Test E preemergence; format: in vivo, Euphorbia heterophylla; conditions: 21 days, scale 0 to 100
Excerpt: as §1, §2

kochia = test: Test A postemergence; format: in vivo, Kochia scoparia
Procedure, shortened: (§4)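 Visual injury ratings, 0 = no effect to 100 = complete control, taken about 10 days after treatment against untreated controls. Test chemicals, in a non-phytotoxic surfactant-containing solvent, were sprayed onto soil preemergence or onto one- to two-leaf plants (2–10 cm) postemergence, in loam–sand soil under greenhouse conditions.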

blackgrass = test: Test A postemergence; format: in vivo, Alopecurus myosuroides
Procedure, shortened: as §4

[2] = Postemergence, 500 g ai/ha, 0 to 100 scale (0 no effect, 100 complete control)
[3] = postemergence, 125 g ai/ha, about 10 days, visual rating on 0 to 100 scale (0 no effect, 100 complete control)

## CCCc1cc(C(=O)NCC(F)(F)F)nn1Cc1ccnc(C(F)(F)F)c1 [Compound 105]
crabgrass, naked; 16 g ai/ha
  Plant response rating, Crabgrass, Naked: 90
crabgrass, naked; 31 g ai/ha
  Plant response rating, Crabgrass, Naked: 100
crabgrass, naked; 62 g ai/ha
  Plant response rating, Crabgrass, Naked: 100
crabgrass, naked; 125 g ai/ha
  Plant response rating, Crabgrass, Naked: 100
crabgrass, naked; 250 g ai/ha
  Plant response rating, Crabgrass, Naked: 100
Arrowleaf sida; Postemergence, 31 g ai/ha
  Plant response rating, Arrowleaf Sida: 40
Arrowleaf sida; Postemergence, 125 g ai/ha
  Plant response rating, Arrowleaf Sida: 60
Arrowleaf sida; Postemergence, 250 g ai/ha
  Plant response rating, Arrowleaf Sida: 80
Arrowleaf sida; postemergence, 62 g ai/ha
  Plant response rating, Arrowleaf Sida: 50
Arrowleaf sida; postemergence, 500 g ai/ha
  Plant response rating, Arrowleaf Sida: 90
Common waterhemp; Postemergence, 31 g ai/ha
  Plant response rating, Common Waterhemp: 65
Common waterhemp; Postemergence, 125 g ai/ha
  Plant response rating, Common Waterhemp: 65
Common waterhemp; Postemergence, 250 g ai/ha
  Plant response rating, Common Waterhemp: 75
Common waterhemp; postemergence, 62 g ai/ha
  Plant response rating, Common Waterhemp: 60
Common waterhemp; postemergence, 500 g ai/ha
  Plant response rating, Common Waterhemp: 80
[1]; Postemergence, 31 g ai/ha
  Plant response rating, Waterhemp_RES1: 70
[1]; Postemergence, 125 g ai/ha
  Plant response rating, Waterhemp_RES1: 75
[1]; Postemergence, 250 g ai/ha
  Plant response rating, Waterhemp_RES1: 90
[1]; postemergence, 62 g ai/ha
  Plant response rating, Waterhemp_RES1: 70
[1]; postemergence, 500 g ai/ha
  Plant response rating, Waterhemp_RES1: 95
bermudagrass; 16 g ai/ha
  Plant response rating, Bermudagrass: 70
bermudagrass; 31 g ai/ha
  Plant response rating, Bermudagrass: 90
bermudagrass; 62 g ai/ha
  Plant response rating, Bermudagrass: 98
bermudagrass; 125 g ai/ha
  Plant response rating, Bermudagrass: 98
bermudagrass; 250 g ai/ha
  Plant response rating, Bermudagrass: 100
horseweed; Postemergence, 31 g ai/ha
  Plant response rating, Horseweed: 20
horseweed; Postemergence, 125 g ai/ha
  Plant response rating, Horseweed: 35
horseweed; Postemergence, 250 g ai/ha
  Plant response rating, Horseweed: 50
horseweed; postemergence, 62 g ai/ha
  Plant response rating, Horseweed: 25
horseweed; postemergence, 500 g ai/ha
  Plant response rating, Horseweed: 70
Wild poinsettia; 16 g ai/ha
  Plant response rating, Wild Poinsettia: 50
Wild poinsettia; 31 g ai/ha
  Plant response rating, Wild Poinsettia: 80
Wild poinsettia; 62 g ai/ha
  Plant response rating, Wild Poinsettia: 100
Wild poinsettia; 125 g ai/ha
  Plant response rating, Wild Poinsettia: 100
Wild poinsettia; 250 g ai/ha
  Plant response rating, Wild Poinsettia: 100

## CCONC(=O)c1cc(CC)n(Cc2cc(C(F)(F)F)no2)n1 [Compound 125]
kochia; [2]
  Kochia plant response rating: 90
kochia; [3]
  Kochia plant response rating: 60
blackgrass; [2]
  Blackgrass plant response rating: 90
blackgrass; [3]
  Blackgrass plant response rating: 30

## CCOc1cc(C(=O)NC2CC2)nn1Cc1ccnc(OC(F)F)c1 [Compound 133]
kochia; [2]
  Kochia plant response rating: 100
kochia; [3]
  Kochia plant response rating: 90
blackgrass; [2]
  Blackgrass plant response rating: 100
blackgrass; [3]
  Blackgrass plant response rating: 90

## CCc1cc(C(=O)NCC(F)(F)F)nn1Cc1cc(OC(F)F)nn1C [Compound 206]
kochia; Postemergence, 125 g ai/ha, 0 to 100 scale, 0 no effect, 100 complete control
  Kochia plant response rating: 80
kochia; [2]
  Kochia plant response rating: 90
blackgrass; [2]
  Blackgrass plant response rating: 50
blackgrass; [3]
  Blackgrass plant response rating: 0
